The values that follow come from PMC8284666, “Biochemical characterization of protease activity of Nsp3 from SARS-CoV-2 and its inhibition by nanobodies” (PLoS ONE, 2021).

Test [1] concerns the target PLpro from SARS-CoV-2 (Severe acute respiratory syndrome coronavirus 2, UniProt P0DTC1). Put plainly: biochemical. Particulars: for inhibition at 10 µM: read-out: percentage inhibition in the HTS.
Test [2] addresses T1, Nsp3^core (Severe acute respiratory syndrome coronavirus 2, UniProt P0DTC1). Briefly: biochemical.
Test [3] relates to panel of 42 human DUBs and the viral ovarian tumor (vOTU). It counts as biochemical. Particulars: tested at 10 and 1 μM; result in words.
Test [4] concerns the target T1, Nsp3^core. In kind it is biochemical.
In test [5] the test system is PLpro^CoV-1. Particulars: read-out: IC50 against PLpro^CoV-1; cited from earlier work.
Test [6] has as its system SARS-CoV-2 PLpro. Conditions: cited from earlier work.
The target in test [7] is SARS-CoV-2 Nsp3 residues 743-1072 (PL-pro), purified, tags removed (SARS-CoV-2, Wuhan-Hu-1 (MN908947.3), UniProt P0DTD1). Put plainly: ITC. Particulars: both partners purified.
The mark [8] stands for this setting: screened in duplicate at 10 μM, hit criterion.

As usually defined, the IC50 is the concentration that gives 50% inhibition. In general, inhibition refers to the share of the control response that was lost under treatment. A word on the Kd: it is the equilibrium constant for the complex coming apart. Low values mean tighter binding, high ones weaker binding.

Like-named read-outs stand apart in the source and are kept apart here.

For the molecule `CCN(CC)C(=S)SSC(=S)N(CC)CC` [Disulfiram], the figures for the IC50 in test [1] and in test [2] were 690 nM and 660 nM, respectively. In addition, the inhibition at 10 µM in test [1] (setting [8]) is above 50%. The “selectivity / off-target inhibition in the DUB panel” value (from here on “selectivity / off-target inhibition”) in test [3] is given as “inhibited–at different extents–several other human DUBs”.
Regarding `CC(Cc1ccc(O)c(O)c1)C(C)Cc1ccc(O)c(O)c1` (stereo not shown) [Nordihydroguaiaretic acid], the IC50 is 1060 nM in test [1] and 1620 nM in test [2]. The inhibition at 10 µM in test [1] (setting [8]) was above 50%.
In test [1], `Nc1nc2nc[nH]c2c(=S)[nH]1` [Thioguanine] showed an IC50 of 4540 nM.
For `O=c1sn(-c2cccc3ccccc23)c(=O)n1Cc1ccccc1` [Tideglusib], in test [1], the IC50 worked out at 210 nM and the inhibition at 10 µM is above 50%. Besides, half-maximal inhibition in test [2] (IC50) was put at 1480 nM. The “selectivity / off-target inhibition” value in test [3] is “inhibited–at different extents–several other human DUBs”.
As for Auranofin, the IC50 in test [1] (read-out: IC50 against PLpro) and in test [2] was around 1000 nM throughout. Besides, the “selectivity / off-target inhibition” value in test [3] is on record as “inhibited–at different extents–several other human DUBs”.
On to GRL-0617, for which the “inhibition of viral polypeptide (Nsp1-2 FL) cleavage by Nsp3” value in test [4] is “able to inhibit cleavage of the viral polypeptide”. Moreover, the IC50 in test [5] was 600 nM; in test [6], around 2000 nM.

B1: NbSL18, recombinant, purified from bacteria (VHH)
VHH: QVQLQESGGGLVQAGGSLRLSCAASGSIFLPGFMGWYRQAPGKERELVASITPGTTTNYADSVKGRFTISRDNAKNTVYLQMNSLKPEDTAVYYCAAYVFVYRNYWGQGTQVTVSS
B1: in test [7], the Kd is around 500 nM.
